Reference: the supplement of paper PMC10307832

Columns and labels:
Experiment in all cases: relative viability (nuclei count vs DMSO), 5 days (fraction); higher = more cells survive
[1] = compound: CC1=CN2C(=O)C=C(N=C2C(=C1)C(C)NC3=CC=CC=C3)N4CCOCC4 [TGX 221]
Outline: (§1)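 In 1536-well plates, lung cancer cell lines rested overnight at 37 °C before five library-drug doses (not always all listed), √10 apart, were pinned onto vehicle-anchored plates. Nuclei were counted with MetaXpress from 4× Hoechst images taken after 5 days without medium change. Viability compares treated-well with vehicle-well nuclei as a median over plates, and plates needed control CV below 25% plus at least one doubling to pass.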

[2] = compound: C1=CC=C(C(=C1)C2=CC=C(C=C2)C3=CSC4=C3C(=C(C(=O)N4)C#N)O)O
Outline: as §1

[3] = compound: O=C(CCCCCCNC(=O)c1cnc(N(c2ccccc2)c2ccccc2)nc1)NO [Ricolinostat]
Outline: as §1

Row | Cell Line | relative viability ([1]; 0.08 µM) | relative viability ([1]; 0.253 µM) | relative viability ([1]; 0.8 µM) | relative viability ([1]; 2.53 µM) | relative viability ([1]; 8 µM) | relative viability ([2]; 0.08 µM) | relative viability ([2]; 0.253 µM) | relative viability ([2]; 0.8 µM) | relative viability ([2]; 2.53 µM) | relative viability ([2]; 8 µM) | relative viability ([3]; 0.08 µM) | relative viability ([3]; 0.253 µM) | relative viability ([3]; 0.8 µM) | relative viability ([3]; 2.53 µM)
1 | NCI-H460 | 0.968 | 0.96 | 0.977 | 0.945 | 0.925 | 0.963 | 1.05 | 1.02 | 1.06 | 0.742 | 0.95 | 0.968 | 0.96 | 0.989
2 | PC-14 | 0.913 | 0.953 | 0.983 | 1.02 | 0.907 | 0.844 | 1.24 | 0.952 | 1.09 | 0.806 | 0.932 | 0.927 | 0.902 | 0.798
3 | NCI-H2009 | 0.967 | 0.987 | 1.01 | 0.999 | 0.868 | 0.971 | 1.01 | 0.987 | 1.01 | 0.884 | 0.861 | 0.929 | 0.905 | 0.75
4 | COR-L 105 | 1.01 | 0.875 | 0.859 | 0.944 | 0.823 | 0.851 | 0.96 | 0.96 | 0.708 | 0.903 | 0.775 | 0.92 | 0.837 | 1.09
5 | SW 900 | 0.839 | 0.938 | 0.742 | 0.608 | 0.601 | 0.81 | 1.22 | 0.809 | 0.773 | 0.56 | 0.591 | 0.832 | 0.647 | 0.74
6 | NCI-H1993 | 0.878 | 0.762 | 0.886 | 0.681 | 0.877 | 0.892 | 1.17 | 0.897 | 0.87 | 0.83 | 0.726 | 1 | 0.999 | 1.04
7 | NCI-H1395 | 0.787 | 0.801 | 0.838 | 0.664 | 0.703 | – | 0.925 | 0.837 | 0.944 | 0.888 | – | 0.922 | 0.746 | 0.833
8 | NCI-H1703 | 0.892 | 0.785 | 0.776 | 0.672 | 0.634 | 0.929 | 0.965 | 0.902 | 0.892 | 0.789 | – | 1.01 | 0.928 | 1
9 | SW 1573 | 0.895 | 0.876 | 0.961 | 0.906 | 0.902 | 1.06 | 1.17 | 1.01 | 1.03 | 0.738 | 0.936 | 1.07 | 0.896 | 1.02
10 | BEN | 0.914 | 0.856 | 0.918 | 0.899 | 0.937 | 0.883 | 0.951 | 0.966 | 0.999 | 0.811 | 0.743 | 0.966 | 0.754 | 0.694
11 | RERF-LC-KJ | 0.895 | 0.933 | 0.964 | 0.917 | 0.938 | 1.07 | 1.07 | 0.987 | 1.01 | 0.8 | 0.955 | 1.02 | 0.984 | 0.814
12 | NCI-H522 | 0.909 | 0.795 | 1.17 | 0.927 | 1.01 | 0.889 | 0.962 | 1.13 | 0.966 | 0.966 | 0.997 | 0.996 | 0.928 | 0.915
13 | UMC-11 | 0.957 | 0.91 | 1 | 0.976 | 1.08 | 0.793 | 0.892 | 1.07 | 0.921 | 0.813 | 0.889 | 0.945 | 0.866 | 0.464
14 | HOP-62 | 0.965 | 1.06 | 1.04 | 1.09 | 1.09 | 1.08 | 1.12 | 1 | 1.08 | 0.82 | 0.932 | 0.987 | 1.03 | 0.913
15 | NCI-H1623 | 1.04 | 0.863 | 0.949 | 0.82 | 0.991 | 1.04 | 1.1 | 0.927 | 1.04 | 0.774 | 0.933 | 0.972 | 1.12 | 0.889
16 | NCI-H2023 | 0.901 | 0.89 | 0.927 | 0.889 | 0.845 | 0.996 | 1.04 | 1.02 | 1.01 | 0.722 | 0.752 | 1.01 | 0.931 | 0.821

Row | Cell Line | relative viability ([1]; 0.08 µM) | relative viability ([1]; 0.253 µM) | relative viability ([1]; 0.8 µM) | relative viability ([1]; 2.53 µM) | relative viability ([1]; 8 µM) | relative viability ([2]; 0.08 µM) | relative viability ([2]; 0.253 µM) | relative viability ([2]; 0.8 µM) | relative viability ([2]; 2.53 µM) | relative viability ([2]; 8 µM) | relative viability ([3]; 0.08 µM) | relative viability ([3]; 0.253 µM) | relative viability ([3]; 0.8 µM) | relative viability ([3]; 2.53 µM)
17 | NCI-H596 | 1.03 | 0.953 | 1.02 | 0.94 | 0.997 | 0.777 | 1.22 | 1.05 | 0.98 | 0.841 | 0.999 | 1.1 | 0.987 | 0.851
18 | LOU-NH91 | 0.914 | 1 | 0.948 | 0.948 | 0.901 | 0.941 | 1.06 | 0.962 | 0.896 | 0.894 | – | 1.03 | 0.94 | 0.98
19 | COR-L23 | 1.01 | 1 | 0.97 | 1.02 | 0.989 | 1.13 | 1.07 | 1.1 | 1.13 | 0.704 | 0.942 | 0.895 | 0.844 | 0.707
20 | EPLC-272H | 0.911 | 0.837 | 1.02 | 0.727 | 0.978 | 0.688 | 0.773 | 0.926 | 1 | 0.788 | 0.673 | 0.942 | 0.719 | 0.577
21 | Calu-6 | 1.03 | 0.929 | 1.02 | 0.923 | 0.957 | 1.01 | 1.11 | 1.02 | 1.08 | 0.899 | 0.957 | 0.994 | 0.981 | 0.895
22 | H3255 | 0.946 | 0.917 | 0.93 | 0.872 | 1.01 | 0.995 | 1.09 | 0.882 | 1.01 | 0.858 | 0.809 | 0.911 | 0.838 | 0.783
23 | NCI-H650 | 0.873 | 0.964 | 0.853 | 0.867 | 0.889 | 0.85 | 1.04 | 0.835 | 1.01 | 0.877 | 0.769 | 0.969 | 0.874 | 0.696
24 | NCI-H1944 | 0.82 | 0.915 | 0.911 | 0.883 | 0.851 | 0.902 | 1.05 | 0.94 | 0.965 | 0.844 | 0.835 | 1.03 | 0.876 | 0.692
25 | NCI-H23 | 0.993 | 0.861 | 0.909 | 0.825 | 0.932 | 0.948 | 1.03 | 1.07 | 0.978 | 0.805 | 0.779 | 1.03 | 0.851 | 0.895
26 | EBC-1 | 0.952 | 1.03 | 0.976 | 0.891 | 0.736 | 1.04 | 1.14 | 0.975 | 1.15 | 0.768 | 0.808 | 0.886 | 0.895 | 0.449
27 | NCI-H358 | 0.914 | 0.88 | 0.914 | 1.02 | 0.756 | 0.905 | 0.937 | 1.04 | 0.907 | 0.716 | 0.726 | 0.914 | 1.05 | 1.04
28 | HCC-366 | 0.942 | 0.999 | 1.03 | 0.957 | 1.01 | 0.829 | 1.08 | 1.07 | 1.01 | 0.638 | 0.984 | 1.03 | 1.03 | 0.769
29 | NCI-H2405 | 0.949 | 0.991 | 0.968 | 0.954 | 0.889 | 0.977 | 0.995 | 0.927 | 0.958 | 0.955 | 0.878 | 1 | 1.01 | 0.802
30 | NCI-H441 | 0.952 | 0.955 | 1.04 | 1.08 | 1.06 | 0.928 | 1.2 | 1.22 | 1.12 | 0.63 | 0.793 | 0.972 | 1.01 | 0.892
31 | NCI-H322M | 0.876 | 0.875 | 0.904 | 0.801 | 0.841 | 0.866 | 0.918 | 0.95 | 0.949 | 0.96 | – | 0.964 | 0.958 | 0.923
